The test concerns the target T1, BcGDHγα (Burkholderia cepacia, UniProt Q8GQE7).
T1 construct: gene gdhAlpha; alpha (539 aa, 60 kDa) with C-terminal His tag; gamma 168 aa with signal peptide, mature 121 aa (13 kDa); pTrc99A, E. coli BL21(DE3); no beta-subunit; heterodimer; purified by Ni and cation exchange; with Glucose dehydrogenase gamma subunit (hitchhiker protein, small subunit)
T1 sequence (Q8GQE7 1-539): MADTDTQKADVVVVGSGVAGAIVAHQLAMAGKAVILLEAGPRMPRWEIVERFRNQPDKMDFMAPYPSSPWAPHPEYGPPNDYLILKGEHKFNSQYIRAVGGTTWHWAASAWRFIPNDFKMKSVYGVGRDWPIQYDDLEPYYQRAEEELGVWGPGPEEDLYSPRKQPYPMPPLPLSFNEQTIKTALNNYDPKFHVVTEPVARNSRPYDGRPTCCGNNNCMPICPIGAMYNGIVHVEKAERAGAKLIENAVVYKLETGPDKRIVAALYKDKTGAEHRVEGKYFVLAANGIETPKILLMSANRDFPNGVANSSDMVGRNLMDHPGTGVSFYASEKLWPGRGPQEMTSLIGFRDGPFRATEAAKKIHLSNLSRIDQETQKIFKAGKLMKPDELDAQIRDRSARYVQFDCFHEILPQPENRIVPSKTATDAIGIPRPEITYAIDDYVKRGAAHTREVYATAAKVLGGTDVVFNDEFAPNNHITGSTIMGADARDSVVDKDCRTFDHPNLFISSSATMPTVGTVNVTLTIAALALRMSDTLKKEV
T1 sequence (A0A0H3KLY3 48-168 partner): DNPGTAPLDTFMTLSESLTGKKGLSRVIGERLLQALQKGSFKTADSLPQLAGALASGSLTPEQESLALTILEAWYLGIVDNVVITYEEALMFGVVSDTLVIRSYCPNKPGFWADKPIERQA
Kind of test: X-ray crystal structure, […] Å. The class given is binding. Particulars: covalent; C8M of FAD to His105 of the alpha-subunit.

Take `Cc1cc2nc3c(=O)[nH]c(=O)nc-3n(C[C@H](O)[C@H](O)[C@H](O)COP(=O)(O)OP(=O)(O)OC[C@H]3O[C@@H](n4cnc5c(N)ncnc54)[C@H](O)[C@@H]3O)c2cc1C` [FAD]: the “X-ray crystal structure, 2.6 Å” value is “a covalent bond was deemed to form between FAD and His105 in the α-subunit”.
